How the values were obtained:
mouse model for ASD = experiment: Sociality (aggregons) in mouse model for ASD, pups of antibiotic-treated mothers; type: in vivo
Description: ASD is a neurobehavioral disorder in which affected individuals have persistent deficits in social communication and interaction (symptom of ASD). To address the impact of 2′-FL administration on social communication and interaction, a mouse model for ASD was designed and experiments conducted to study ASD-associated neurobehavioral disorders such as interpersonal sociality. A depiction of the system used for scoring contact behavior was adapted from known method, e.g., that described by Harshaw, C. et al. (2014). “Sex Differences in Thermogenesis Structure Behavior and Contact within Huddles of Infant Mice.” Plos One, 9(1), 1-15 and Sokoloff G, Blumberg M S. Competition and cooperation among huddling infant rats. Dev Psychobiol. 2001 September; 39(2):65-75. doi: 10.1002/dev.1030, Erratum in: Dev Psychobiol 2001 November; 39(3):229.
The question to be addressed was whether providing 2′-FL rescues the normal sociality of mouse pups whose social interaction was perturbed. Perturbation of behavior was achieved by antibiotic treatment of their mothers using a method previously developed and validated. Sociality is measured by objective measurement of “aggregons” which means the (a) huddling of dams and pups or (b) pups only in groups.
The mouse experiment involved 22 mother-pup litters including a control group (n=7 litters with 28 pups), an antibiotic treated group (7 litters with 28 pups), and a 2′-FL treated group (8 litters with 32 pups).
Mothers were treated with an antibiotic cocktail, starting from gestational day 12; delivery was on day 20. Antibiotic use was continued for mothers postpartum. Treatment of 2′-FL was given to mothers and pups through their water intake. Sociality was measured at night, as mice are nocturnal animals, using the mean number of aggregons (social groupings). Aggregons could consist of individual mice only if they were not huddled with other mice, or they could be a group defined as either one or more pups with the dam, or two or more pups without the dam. The outcome of the experiment was measured on postpartum day 7. […]

[1] = system: gastrointestinal mitochondrial function; details: murine model; pathways of electron transport chain, oxidative phosphorylation, protein targeting to the mitochondrion; cited from earlier work
[2] = system: IL-10 and inflammatory cytokine expression; details: 2′-FL alone or as part of an HMO mixture, pre-clinical studies; cited from earlier work
bifidobacteria = details: alone or in combination with other HMOs; cited from earlier work

2′-fucosyllactose [2′-FL]
pup-only aggregons, pattern by experimental group (mouse model for ASD; night 7, p<0.05, 2′-FL group follows the pattern of the controls): This pattern in the aggregons by experimental group was also observed
marginal mean of aggregons including dams (mouse model for ASD; night 7 postpartum, 2′-FL via water intake to mothers and pups, antibiotic-treated group 41, controls 26, lower number = more sociality): 25 aggregons
sociality of antibiotic-treated mice (dams and their offspring) (mouse model for ASD; postpartum day 7): normal sociality was rescued
gastrointestinal mitochondrial function [1]: increase gastrointestinal mitochondrial function
IL-10 [2]: increase IL-10
inflammatory cytokine expression [2]: decrease inflammatory cytokine expression
growth and relative abundance of bifidobacteria (bifidobacteria): increases the growth and relative abundance of bifidobacteria

Source: patent US20230255990A1, “USE OF 2'-FL FOR TREATMENT OF SYMPTOMS ASSOCIATED WITH AUTISM SPECTRUM DISORDER” (Glycosyn LLC, priority 2020, published 2023)
